From ChEMBL document CHEMBL1201862, “PubChem BioAssay data set” (2004)
Active and inactive are the calls of the source.

Legend:
[1] = molecular target: Cytochrome P450 2C19 (Homo sapiens, UniProt P33261); experiment: Cytochrome panel assay with activity outcomes. Panel member name: p450-cyp2c19 Compounds with AC50 equal or less than 10 uM are considered active; assay type: functional; details: read-out: AC50
[2] = molecular target: Cytochrome P450 2C9 (Homo sapiens, UniProt P11712)
[3] = molecular target: T1, Cytochrome P450 1A2 (Homo sapiens, UniProt P05177)
T1 sequence (P05177 whole entry): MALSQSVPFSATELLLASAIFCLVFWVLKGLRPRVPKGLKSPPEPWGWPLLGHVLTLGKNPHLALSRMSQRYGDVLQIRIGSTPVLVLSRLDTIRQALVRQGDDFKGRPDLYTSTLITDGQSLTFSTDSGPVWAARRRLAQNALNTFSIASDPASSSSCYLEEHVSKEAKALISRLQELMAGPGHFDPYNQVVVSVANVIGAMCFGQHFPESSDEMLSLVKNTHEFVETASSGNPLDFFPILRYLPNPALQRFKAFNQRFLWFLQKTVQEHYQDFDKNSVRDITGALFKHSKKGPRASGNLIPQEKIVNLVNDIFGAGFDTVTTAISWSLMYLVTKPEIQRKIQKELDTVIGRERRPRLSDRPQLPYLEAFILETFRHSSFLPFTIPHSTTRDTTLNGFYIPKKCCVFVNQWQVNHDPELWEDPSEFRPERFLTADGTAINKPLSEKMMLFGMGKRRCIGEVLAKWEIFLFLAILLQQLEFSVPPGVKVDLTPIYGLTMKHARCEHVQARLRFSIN

[4] = molecular target: Cytochrome P450 3A4 (Homo sapiens, UniProt P08684);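 further: CYP3A4 tested as one member of a cytochrome P450 panel screen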
[5] = molecular target: Cytochrome P450 2D6 (Homo sapiens, UniProt P10635);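 further: CYP2D6 member of a cytochrome P450 panel assay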
[6] = molecular target: Protein Wnt-3a (Mus musculus, UniProt P27467); experiment: Wnt3a-driven reporter signaling inhibition, dose response, selectivity assay for Gli-SUFU antagonist project, Wnt-LIGHT cells, luminescence (AID 651570); assay type: functional; details: read-out: IC50_Mean;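 further: Wnt-LIGHT reporter cells stimulated with conditioned medium from Wnt3a-producing cells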
[7] = molecular target: FAD-linked sulfhydryl oxidase ALR (Homo sapiens, UniProt P55789); experiment: inhibitors of human ALR sulfhydryl oxidase, dose response, biochemical, H2O2 detection, luminescence, cherry-pick (AID 493248)
[8] = molecular target: Troponin, cardiac muscle (Homo sapiens, UniProt P19429+P45379+P63316); experiment: Fluorescence-based biochemical high throughput dose response assay for activators of the calcium sensitivity of cardiac Regulated Thin Filaments (RTF). [Related pubchem assays (depositor defined):AID493008, AID493018, AID504382, AID504383]; assay type: protein-complex assay
[9] = test system: HEK293; experiment: inhibitors of LMP1-driven NF-kB reporter, dose response, cell-based, HEK293, luciferase, cherry-pick (AID 588343); assay type: functional; details: Homo sapiens
[10] = molecular target: Glucose-6-phosphate 1-dehydrogenase (Homo sapiens, UniProt P11413); experiment: human G6PD enzyme inhibitors, dose response, selectivity assay for P. falciparum G6PD inhibitor project, biochemical, fluorescence (AID 504792); assay type: functional
[11] = molecular target: T2, High affinity choline transporter 1 (Homo sapiens, UniProt Q9GZV3); experiment: CHT inhibitors, dose response, cell-based, 5-point CRC, membrane potential dye (AID 504840); assay type: functional
T2 sequence (Q9GZV3 whole entry): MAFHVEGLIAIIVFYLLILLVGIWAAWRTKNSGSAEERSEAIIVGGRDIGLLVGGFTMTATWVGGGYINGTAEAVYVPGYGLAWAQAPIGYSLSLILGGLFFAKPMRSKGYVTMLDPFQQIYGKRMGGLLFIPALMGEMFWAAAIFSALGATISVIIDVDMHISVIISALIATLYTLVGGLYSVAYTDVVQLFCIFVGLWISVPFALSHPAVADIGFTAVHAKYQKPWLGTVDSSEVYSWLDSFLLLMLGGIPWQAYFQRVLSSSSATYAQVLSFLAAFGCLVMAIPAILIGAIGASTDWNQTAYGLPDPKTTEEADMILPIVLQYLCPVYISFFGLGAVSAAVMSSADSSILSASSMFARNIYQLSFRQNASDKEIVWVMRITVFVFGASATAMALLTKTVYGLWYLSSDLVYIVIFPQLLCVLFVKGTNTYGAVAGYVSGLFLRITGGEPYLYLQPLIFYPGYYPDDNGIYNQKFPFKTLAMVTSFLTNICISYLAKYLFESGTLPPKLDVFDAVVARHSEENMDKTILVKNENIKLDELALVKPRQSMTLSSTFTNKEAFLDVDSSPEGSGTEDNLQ

[12] = intracellular Trypanosoma cruzi inhibitors in host cells – cell-based, plate reader, cherry-pick samples, set 3, dose response (AID 651818); assay type: functional;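 further: compounds incubated with infected cells for about four days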
[13] = Shn3 3'UTR reporter inhibitors, dose response, cell-based, Clone20 osteoblasts, firefly luciferase, cherry-picked (AID 624132); assay type: functional;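 further: firefly luciferase luminescence from reporter carrying the Shn3 3'UTR in osteoblasts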
[14] = HepG2 cell cytotoxicity, dose response, cytotoxicity control for Shn3 inhibitor project, CellTiter-Glo, cherry-picked (AID 624134); assay type: functional, cell-based
[15] = control 3'UTR Renilla luciferase suppression, dose response, counter-screen for Shn3 inhibitor project, cell-based, Clone20-Shn3RL, cherry-picked (AID 624133); assay type: functional
[16] = inhibitors of intracellular T. cruzi replication, confirmation, NIH3T3 host cells, beta-gal luminescence (AID 2044); assay type: functional, cell-based;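 further: intracellular parasites grown in NIH/3T3 mouse fibroblasts as host cells; luminescent beta-galactosidase reporter signal from transgenic T. cruzi replicating inside host cells; inhibitors lower the luminescence signal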
[17] = cytotoxicity toward NIH3T3 fibroblasts, dose response, counter-screen, cell-based, ATP luminescence, mouse fibroblasts (AID 2010); assay type: functional;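 further: cells exposed to compound for about 90 hours before reading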
[18] = molecular target: Glyceraldehyde-3-phosphate dehydrogenase (Homo sapiens, UniProt P04406)
[19] = molecular target: T3, Alkaline phosphatase, tissue-nonspecific isozyme (Homo sapiens, UniProt P05186); experiment: human TNAP enzyme inhibitors, SAR follow-up, biochemical, luminescent, dose response (AID 1056)
T3 sequence (P05186 whole entry): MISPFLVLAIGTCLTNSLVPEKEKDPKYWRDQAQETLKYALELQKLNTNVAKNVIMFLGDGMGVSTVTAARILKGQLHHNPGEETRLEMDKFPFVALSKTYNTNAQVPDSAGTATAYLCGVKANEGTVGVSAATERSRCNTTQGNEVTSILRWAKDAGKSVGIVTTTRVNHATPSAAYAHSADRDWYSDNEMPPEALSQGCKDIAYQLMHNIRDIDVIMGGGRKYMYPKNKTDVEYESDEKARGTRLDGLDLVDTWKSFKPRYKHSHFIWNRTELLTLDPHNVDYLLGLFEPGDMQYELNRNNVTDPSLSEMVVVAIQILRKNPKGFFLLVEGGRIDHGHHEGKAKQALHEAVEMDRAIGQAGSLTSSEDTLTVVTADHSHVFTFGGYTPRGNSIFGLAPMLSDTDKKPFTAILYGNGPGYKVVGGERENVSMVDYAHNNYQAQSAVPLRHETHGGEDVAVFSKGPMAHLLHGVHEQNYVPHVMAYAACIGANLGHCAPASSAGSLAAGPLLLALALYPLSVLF

[20] = test system: INS1; experiment: beta cell apoptosis inhibitors, cytokine rescue, dose response, luminescence, retest (AID 449756); assay type: functional, cell-based; details: Rattus norvegicus;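 further: cell death triggered by IL-1 beta plus TNF-alpha plus IFN-gamma mixture; protective hits raise ATP signal compared with cytokine alone wells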

Chain of Protein Wnt-3a (P27467 whole entry): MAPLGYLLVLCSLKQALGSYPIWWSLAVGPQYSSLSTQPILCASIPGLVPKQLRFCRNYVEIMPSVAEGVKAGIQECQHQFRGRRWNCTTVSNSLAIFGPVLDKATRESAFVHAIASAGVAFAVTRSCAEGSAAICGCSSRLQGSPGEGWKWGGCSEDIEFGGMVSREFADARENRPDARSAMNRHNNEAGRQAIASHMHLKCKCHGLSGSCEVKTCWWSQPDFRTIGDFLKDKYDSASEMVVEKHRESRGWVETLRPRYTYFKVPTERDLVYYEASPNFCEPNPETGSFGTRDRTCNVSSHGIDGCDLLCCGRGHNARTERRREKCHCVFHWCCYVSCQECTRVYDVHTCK
Chain of Glucose-6-phosphate 1-dehydrogenase (P11413 whole entry): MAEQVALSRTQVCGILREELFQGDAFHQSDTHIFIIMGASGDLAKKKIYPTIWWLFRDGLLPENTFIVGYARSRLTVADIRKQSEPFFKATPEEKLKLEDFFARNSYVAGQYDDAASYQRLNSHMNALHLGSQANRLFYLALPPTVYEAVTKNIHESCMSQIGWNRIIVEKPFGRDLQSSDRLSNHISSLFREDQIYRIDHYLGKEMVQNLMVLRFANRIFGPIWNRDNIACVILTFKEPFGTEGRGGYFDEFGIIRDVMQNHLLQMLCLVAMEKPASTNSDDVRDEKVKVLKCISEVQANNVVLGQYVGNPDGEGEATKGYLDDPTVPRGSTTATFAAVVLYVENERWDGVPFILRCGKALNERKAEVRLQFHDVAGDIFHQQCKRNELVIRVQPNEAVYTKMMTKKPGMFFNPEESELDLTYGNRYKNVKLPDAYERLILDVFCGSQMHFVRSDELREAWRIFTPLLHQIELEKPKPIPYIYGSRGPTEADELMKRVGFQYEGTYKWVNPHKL
Chain of Cytochrome P450 3A4 (P08684 whole entry): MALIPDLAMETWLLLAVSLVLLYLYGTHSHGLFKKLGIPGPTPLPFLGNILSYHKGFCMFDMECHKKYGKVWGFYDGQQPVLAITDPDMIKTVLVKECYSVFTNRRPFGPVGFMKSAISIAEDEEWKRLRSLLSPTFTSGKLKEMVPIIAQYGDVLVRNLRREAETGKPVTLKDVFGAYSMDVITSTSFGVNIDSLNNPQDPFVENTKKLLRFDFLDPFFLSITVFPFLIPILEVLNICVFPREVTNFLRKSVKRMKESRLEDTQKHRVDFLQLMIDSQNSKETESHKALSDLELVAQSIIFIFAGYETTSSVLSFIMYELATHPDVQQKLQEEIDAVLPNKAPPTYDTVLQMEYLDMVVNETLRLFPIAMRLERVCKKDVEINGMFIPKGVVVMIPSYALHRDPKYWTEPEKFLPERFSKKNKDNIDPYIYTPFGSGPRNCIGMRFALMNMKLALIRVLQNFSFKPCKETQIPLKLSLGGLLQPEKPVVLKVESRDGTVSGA
Chain of Cytochrome P450 2D6 (P10635 whole entry): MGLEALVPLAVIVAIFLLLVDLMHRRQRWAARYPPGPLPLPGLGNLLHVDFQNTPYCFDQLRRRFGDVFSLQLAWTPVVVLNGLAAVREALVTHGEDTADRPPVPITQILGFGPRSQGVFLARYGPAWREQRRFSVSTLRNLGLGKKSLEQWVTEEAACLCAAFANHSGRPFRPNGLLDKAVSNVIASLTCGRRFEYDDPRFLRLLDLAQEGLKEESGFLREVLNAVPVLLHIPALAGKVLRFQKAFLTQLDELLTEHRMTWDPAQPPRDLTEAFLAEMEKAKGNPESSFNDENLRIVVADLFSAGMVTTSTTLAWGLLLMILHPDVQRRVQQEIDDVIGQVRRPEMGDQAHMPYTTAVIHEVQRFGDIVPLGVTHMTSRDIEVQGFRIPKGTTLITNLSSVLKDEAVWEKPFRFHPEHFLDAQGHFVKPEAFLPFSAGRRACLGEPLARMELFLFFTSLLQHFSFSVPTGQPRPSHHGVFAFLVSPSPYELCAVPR
Chain of Cytochrome P450 2C19 (P33261 whole entry): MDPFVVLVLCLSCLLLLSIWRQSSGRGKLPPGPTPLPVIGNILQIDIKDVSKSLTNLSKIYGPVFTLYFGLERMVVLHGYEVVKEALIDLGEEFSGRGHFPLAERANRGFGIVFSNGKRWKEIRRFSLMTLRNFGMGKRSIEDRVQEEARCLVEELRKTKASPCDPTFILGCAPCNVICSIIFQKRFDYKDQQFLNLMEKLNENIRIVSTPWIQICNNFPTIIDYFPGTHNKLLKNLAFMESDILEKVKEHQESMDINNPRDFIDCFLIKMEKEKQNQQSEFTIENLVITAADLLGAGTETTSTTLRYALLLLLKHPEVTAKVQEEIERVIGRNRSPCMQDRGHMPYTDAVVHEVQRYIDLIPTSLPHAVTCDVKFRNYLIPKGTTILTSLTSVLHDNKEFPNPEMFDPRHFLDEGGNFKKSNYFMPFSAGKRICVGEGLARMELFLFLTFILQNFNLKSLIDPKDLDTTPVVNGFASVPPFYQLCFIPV
Chain of FAD-linked sulfhydryl oxidase ALR (P55789 whole entry): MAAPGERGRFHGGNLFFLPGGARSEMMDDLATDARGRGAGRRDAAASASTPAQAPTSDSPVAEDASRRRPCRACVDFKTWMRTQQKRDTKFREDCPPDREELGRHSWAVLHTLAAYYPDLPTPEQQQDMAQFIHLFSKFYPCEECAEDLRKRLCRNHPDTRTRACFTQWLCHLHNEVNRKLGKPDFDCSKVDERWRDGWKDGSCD
Chain of Cytochrome P450 2C9 (P11712 whole entry): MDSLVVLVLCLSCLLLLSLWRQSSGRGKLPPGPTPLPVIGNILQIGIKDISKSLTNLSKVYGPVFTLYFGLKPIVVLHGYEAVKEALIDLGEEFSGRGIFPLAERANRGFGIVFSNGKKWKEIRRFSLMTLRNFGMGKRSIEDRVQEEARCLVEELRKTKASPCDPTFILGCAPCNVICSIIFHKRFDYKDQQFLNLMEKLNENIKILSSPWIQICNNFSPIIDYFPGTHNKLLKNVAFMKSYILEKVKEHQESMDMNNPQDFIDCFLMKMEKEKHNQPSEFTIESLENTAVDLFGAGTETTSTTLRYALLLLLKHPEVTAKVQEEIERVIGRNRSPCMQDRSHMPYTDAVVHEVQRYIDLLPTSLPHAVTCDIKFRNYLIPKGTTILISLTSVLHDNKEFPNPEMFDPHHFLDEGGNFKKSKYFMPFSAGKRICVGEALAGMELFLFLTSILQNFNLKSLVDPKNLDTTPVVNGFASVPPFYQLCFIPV
Chain of Glyceraldehyde-3-phosphate dehydrogenase (P04406 whole entry): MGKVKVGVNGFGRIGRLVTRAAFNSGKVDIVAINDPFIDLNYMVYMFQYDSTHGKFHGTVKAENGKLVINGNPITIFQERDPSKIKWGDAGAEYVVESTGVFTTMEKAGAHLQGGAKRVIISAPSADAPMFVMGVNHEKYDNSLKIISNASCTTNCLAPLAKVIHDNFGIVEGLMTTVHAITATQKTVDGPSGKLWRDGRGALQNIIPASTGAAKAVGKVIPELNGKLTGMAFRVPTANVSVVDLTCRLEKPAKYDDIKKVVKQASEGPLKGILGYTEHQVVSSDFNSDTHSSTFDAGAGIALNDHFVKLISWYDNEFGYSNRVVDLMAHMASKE

With `O=C(CCCN1CCN(c2ccccn2)CC1)c1ccc(F)cc1` [AZAPERONE] the AC50 [1] was 15.8 µM (inconclusive), the AC50 [2] was 12.6 µM (inconclusive) and the AC50 [3] was 15.8 µM (inconclusive). For the same compound, the AC50 [4] was “inconclusive” and the AC50 [5] was 7.94 µM (inconclusive).

With `COc1cccc(/C=C/c2ccncc2)c1OC` the IC50 [6] was 1.7 µM (active).

For `CCN(CC)c1ccc(/C=C2\SC(=N)NC2=O)cc1`, the AC50 [7] was 2.74 µM (active) and the EC50 [8] was 6.01 µM (active).

For `CCN1CCN(Cc2ccc(NC(=O)c3ccc(C)c(NC(=O)c4nccnc4N)c3)cc2C(F)(F)F)CC1`, the AC50 [9] was 0.528 µM (active).

In the case of `Cc1ccc(-c2csc(NC(=O)c3ccccc3F)c2C(=O)O)cc1`, the IC50 [10] is reported as > 80 µM (inactive) and the IC50 [11] is reported as 11.5 µM (active).

For `C[C@@H]1CN([C@@H](C)CO)C(=O)c2cc(NC(=O)Nc3ccc(C(F)(F)F)cc3)ccc2O[C@@H]1CN(C)Cc1ccc(Cl)c(Cl)c1`, the AC50 [12] was 3.38 µM (active).

For `Cc1ccc(-c2c(C(=O)N/N=C/c3ccc(C)o3)nnn2-c2nonc2N)cc1`, the IC50 [10] was 12.5 µM (active).

In the case of `CN1C(=O)/C(=C/C=C2\SCCN2C)OC1=S`, the EC50 [8] is reported as 7 µM (active).

With `CC(C)(C)c1ccc(CN2C3=NCCCN3c3ccccc32)cc1` the AC50 [13] was 0.836 µM (active), the AC50 [14] was 21.8 µM (active) and the AC50 [15] was 0.978 µM (active). The IC50 [6] was 2.94 µM (active), the EC50 [16] was 0.387 µM (active) and the EC50 [17] was > 60 µM (not active).

In the case of `Cc1ccsc1-c1nc(CSCC(=O)N2CCN(c3ccccc3)CC2)c(C)o1`, the AC50 [9] is reported as 225 µM (active).

For `COC(=O)C(Cc1ccc(OC(=O)c2ccc(Cl)cc2)cc1)N1Cc2ccccc2C1=O` (stereo unspecified), the AC50 [3] was 31.6 µM (inconclusive), the AC50 [4] was “inconclusive” and the AC50 [5] was 5.01 µM (inconclusive).

With `COc1ccc(C)cc1S(=O)(=O)Nc1ccc2ccccc2c1` the IC50 [18] was > 100 µM (not active) and the IC50 [19] was > 100 µM (inactive).

With `O=C(c1cnc(N2CCN(c3ccccn3)CC2)c2ccccc12)N1CCN(c2cccc(Cl)c2)CC1` the AC50 [20] was 6.14 µM (active), the AC50 [13] was 1.99 µM (active) and the AC50 [14] was 59.9 µM (active). For the same compound, the AC50 [15] was 3.68 µM (active) and the IC50 [6] was 7.02 µM (active).
